Patent US12576169B2, “Silicon-fluoride acceptor substituted radiopharmaceuticals and precursors thereof” (Technische Universität München, priority 2019, dated 2026)
Where two headings read alike, the source gives them in different places. *1 amine or outer side, *2 acyl side, *3 side chain or, on linkers, in order; H or OH if unused. Where a SMILES comes first, the peptide text is derived from it. Side-chain parts run from the residue outwards. [ ]: non-standard residue; d: D form. The star is where a group is joined. X1 = O=C(O)CC[C@H](NC(=O)N[C@@H](CCC(=O)N[C@H](CCCN*)C(=O)O)C(=O)O)C(=O)O; Benzoyl(4-SiFtBu2) = CC(C)(C)[Si](F)(c1ccc(C(=O)*)cc1)C(C)(C)C; γGlu = O=C(O)[C@H](CCC(=O)[*:2])N[*:1]; dCit = NC(=O)NCCC[C@@H](N)C(=O)O; Suc = O=C(CCC(=O)[*:2])[*:1]; dDap = NC[C@@H](N)C(=O)O; CO = O=C([*:1])[*:2]

Tests used:
[1] = target: T1, human serum albumin (HSA) (Homo sapiens, UniProt P02768); assay: Binding to HSA on a Chiralpak HSA column; type: in vitro ADME; details: calibration with nine reference substances
T1 construct: purchased H13H-2433
T1 sequence (P02768 25-609): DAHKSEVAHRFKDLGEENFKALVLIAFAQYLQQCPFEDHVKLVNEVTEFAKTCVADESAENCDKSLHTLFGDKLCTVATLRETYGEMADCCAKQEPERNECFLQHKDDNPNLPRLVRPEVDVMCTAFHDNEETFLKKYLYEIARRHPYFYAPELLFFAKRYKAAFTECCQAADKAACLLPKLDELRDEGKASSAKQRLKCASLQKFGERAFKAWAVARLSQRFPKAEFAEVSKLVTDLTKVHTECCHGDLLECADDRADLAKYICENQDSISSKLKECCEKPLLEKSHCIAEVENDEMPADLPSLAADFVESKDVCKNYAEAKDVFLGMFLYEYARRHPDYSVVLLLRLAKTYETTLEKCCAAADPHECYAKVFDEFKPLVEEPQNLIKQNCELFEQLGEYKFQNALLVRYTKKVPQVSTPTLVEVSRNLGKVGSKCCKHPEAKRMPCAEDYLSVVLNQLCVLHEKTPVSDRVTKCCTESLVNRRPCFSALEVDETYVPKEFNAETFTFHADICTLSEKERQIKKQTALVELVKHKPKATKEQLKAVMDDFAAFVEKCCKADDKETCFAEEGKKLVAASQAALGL
Method: For the determination of human serum albumin (HSA) binding, a Chiralpak HSA column (50×3 mm, 5 μm, H13H-2433) was used at a constant flow rate of 0.5 mL/min. The mobile phase composed of a 50 mM NH4OAc solution in water with pH=7 (solvent C) and isopropanol (solvent D) was freshly prepared for each experiment and used only once. The reference substances (Table 1) as well as the analyzed SiFA-PSMA ligands were dissolved in a mixture of solvent C/solvent D (1:1, v/v, 0.5 mg/mL) and eluted from the HSA column (0-3 min: 100% C, 3-20 min: 20% D in C, λ=254 nm). The column was kept at rt and each run was stopped after detection of the signal to reduce the acquisition time. The nine reference substances display an HSA binding range of 13% to 99% and were injected consecutively in order to establish a sigmoidal calibration curve with the software OriginPro 2018b (FIG. 1).

[2] = test system: LNCaP cells; assay: Internalization of 18F-labeled ligands into LNCaP cells; type: cell-based, human; details: internalized activity at 1 h in % of reference [125I]XII; c = 0.5 nM; LNCaP cells (125.000 cells/well); 37° C., DMEM/F-12 add. 5% BSA; corrected for non-specific binding (10 μm PMPA); mean ± SD (n = 3)
Method: LNCaP cells were grown in DMEM/F-12 (add. 10% FCS, v/v) and maintained at 37° C. in a humidified 5% CO2 atmosphere. […] Subsequent to the removal of the culture medium, cells were washed with DMEM-F12 (add. 5% BSA, v/v, 500 μL) and left to equilibrate in DMEM-F12 (add. 5% BSA, v/v, 200 μL) at 37° C. for 15 min. Each well was treated with either DMEM-F12 (add. 5% BSA, v/v, 25 μL) or a 2-(phosphonomethyl)-pentandioic acid (PMPA) solution (100 μM in PBS, 25 μL) for blockade. Afterwards, the ^18F-labeled SiFA-PSMA ligand (5 nM in PBS, 25 μL) was added and the cells were incubated for 1 h at 37° C. The experiment was terminated by placing the 24-well plate on ice for 3 min and removal of the assay medium. Each well was rinsed with HBSS (4° C., 250 μL) and the fractions were combined with the previous assay medium, representing the amount of unbound radioligand. For removal of surface bound activity, LNCaP cells were incubated with PMPA solution (10 μM in PBS, 4° C., 250 μL) for 5 min and rinsed again with PBS (250 μL, 4° C.). The internalized activity was determined by incubation of LNCaP cells with 1 M aq. NaOH (250 μL) for at least 10 min and combination with the fraction of a subsequent wash step with 1 M aq. NaOH (200 μL). Each experiment (control and blockade) was performed in triplicate. […] All internalization studies were accompanied by reference studies using the reference compound XII (2 nM in HBSS add. 1% BSA, v/v), which were performed analogously. Data were corrected for non-specific internalization and normalized to the specific-internalization observed for the radioiodinated reference compound.

[3] = n-Octanol-PBS partition coefficient (logD7.4); type: physicochemical; details: 18F-labeled ligand; n-octanol/PBS pH=7.4; mean ± SD (n = 5)
Method: Approx. 0.5 MBq of the ^18F-labeled SiFA-PSMA ligand were added into a test tube containing n-octanol (500 μL) and PBS (500 μL, pH=7.4). After vigorously shaking the two-phase mixture for 3 min at rt, the test tube was centrifuged at 9.000 rpm for 5 min to achieve quantitative phase separation. Finally, 150 μL of each layer were pipetted off and measured for activity using a gamma counter. After repeating the experiment for at least five times, the n-octanol-PBS partition coefficient log D7.4 was calculated according to following formula.

[4] = target: PSMA (Homo sapiens, UniProt Q04609); assay: IC50 determination: PSMA binding affinity, competition with [125I]XII on LNCaP cells
Chain of PSMA (Q04609 whole entry): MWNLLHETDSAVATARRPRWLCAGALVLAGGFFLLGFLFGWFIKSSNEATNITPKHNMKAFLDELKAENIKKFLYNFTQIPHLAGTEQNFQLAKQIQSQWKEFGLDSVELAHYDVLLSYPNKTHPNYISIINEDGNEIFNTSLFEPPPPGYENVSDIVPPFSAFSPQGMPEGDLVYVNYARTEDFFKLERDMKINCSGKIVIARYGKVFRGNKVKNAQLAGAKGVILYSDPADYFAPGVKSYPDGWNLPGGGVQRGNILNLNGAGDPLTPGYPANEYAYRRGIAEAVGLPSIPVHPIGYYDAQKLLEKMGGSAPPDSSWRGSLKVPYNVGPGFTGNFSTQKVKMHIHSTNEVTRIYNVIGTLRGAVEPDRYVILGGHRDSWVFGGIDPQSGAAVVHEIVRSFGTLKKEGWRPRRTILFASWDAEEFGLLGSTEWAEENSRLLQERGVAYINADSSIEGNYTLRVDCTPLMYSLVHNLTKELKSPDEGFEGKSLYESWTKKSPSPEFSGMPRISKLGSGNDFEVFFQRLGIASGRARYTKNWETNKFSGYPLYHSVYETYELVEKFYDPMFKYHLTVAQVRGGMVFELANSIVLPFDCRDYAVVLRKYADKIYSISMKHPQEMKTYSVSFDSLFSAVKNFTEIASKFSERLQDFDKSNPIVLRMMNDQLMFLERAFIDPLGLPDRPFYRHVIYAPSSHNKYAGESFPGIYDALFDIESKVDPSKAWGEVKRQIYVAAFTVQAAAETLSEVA
Method: LNCaP cells were grown in Dulbecco's Modified Eagle Medium/Nutrient Mixture F-12 (DMEM/F-12, add. 10% fetal calf serum (FCS), v/v) and maintained at 37° C. in a humidified 5% CO2 atmosphere. […] After removal of the culture medium, LNCaP cells were treated with HBSS (add. 1% BSA, v/v, 4° C., 500 μL) and subsequently left 15 min on ice for equilibration in HBSS (add. 1% BSA, v/v, 4° C., 200 μL). […] For the control series, HBSS (add. 1% BSA, v/v, 25 μL) was used instead of the SiFA-PSMA ligand solution. Each concentration and the control were prepared in triplicate. After 1 h incubation on ice, the assay medium was removed and cells were washed with HBSS (200 μL, 4° C.). […] NaOH (200 μL) for at least 10 min and the resulting cell lysate was removed. The wells were treated again with 1 M aq. […] The experiment was repeated for at least three times and the IC50 value calculated using the GraphPad PRISM 8.0.2 software (Graphpad Software Inc., La Jolla, United States).

[5] = LNCaP cells (150.000 cells/well), reference [125I]XII c = 0.2 nM, 1 h, 4° C., HBSS add. 1% BSA, mean ± SD (n = 3)

| Compound | Binding to HSA [1] [%] | Internalization [2] [%] | logD7.4 [3] | IC50 [4, 5] [nM] | IC50 [4] [nM] |
| --- | --- | --- | --- | --- | --- |
| CC(C)(C)[Si](F)(c1ccc(C(=O)NC[C@@H](NC(=O)[C@@H](CCCCN)NC(=O)CC[C@H](NC(=O)N[C@@H](CCC(=O)O)C(=O)O)C(=O)O)C(=O)N[C@H](CCCCNC(=O)CCC(=O)NCCC[C@@H](NC(=O)CC[C@H](NC(=O)N[C@@H](CCC(=O)O)C(=O)O)C(=O)O)C(=O)O)C(=O)O)cc1)C(C)(C)C [SiFA-PSMA ligand 01 g] | 98.9 | 104.75 ± 4.37 | −3.71 ± 0.03 | 8.7 ± 0.7 |  |
| CC(C)(C)[Si](F)(c1ccc(C(=O)NC[C@@H](NC(=O)[C@H](CCCCN)NC(=O)CC[C@H](NC(=O)N[C@@H](CCC(=O)O)C(=O)O)C(=O)O)C(=O)N[C@H](CCCCNC(=O)CCC(=O)NCCC[C@@H](NC(=O)CC[C@H](NC(=O)N[C@@H](CCC(=O)O)C(=O)O)C(=O)O)C(=O)O)C(=O)O)cc1)C(C)(C)C [SiFA-PSMA ligand 01 h] | 98.7 | 142.95 ± 7.49 | −3.71 ± 0.16 | 8.7 ± 0.6 |  |
| CC(C)(C)[Si](F)(c1ccc(C(=O)NC[C@@H](NC(=O)CNC(=O)CC[C@H](NC(=O)N[C@@H](CCC(=O)O)C(=O)O)C(=O)O)C(=O)N[C@H](CCCCNC(=O)CCC(=O)NCCC[C@@H](NC(=O)CC[C@H](NC(=O)N[C@@H](CCC(=O)O)C(=O)O)C(=O)O)C(=O)O)C(=O)O)cc1)C(C)(C)C [SiFA-PSMA ligand 01 i] | 98.9 | 160.83 ± 2.72 | −3.96 ± 0.04 | 8.8 ± 1.7 |  |
| C[C@H](O)[C@@H](NC(=O)CC[C@H](NC(=O)N[C@@H](CCC(=O)O)C(=O)O)C(=O)O)C(=O)N[C@H](CNC(=O)c1ccc([Si](F)(C(C)(C)C)C(C)(C)C)cc1)C(=O)N[C@H](CCCCNC(=O)CCC(=O)NCCC[C@@H](NC(=O)CC[C@H](NC(=O)N[C@@H](CCC(=O)O)C(=O)O)C(=O)O)C(=O)O)C(=O)O [SiFA-PSMA ligand 01 j] | ≥98.9 | 120.83 ± 0.92 | −3.86 ± 0.07 | 9.2 ± 1.2 |  |
| CC(C)(C)[Si](F)(c1ccc(C(=O)NC[C@@H](NC(=O)[C@@H](Cc2ccccc2)NC(=O)CC[C@H](NC(=O)N[C@@H](CCC(=O)O)C(=O)O)C(=O)O)C(=O)N[C@H](CCCCNC(=O)CCC(=O)NCCC[C@@H](NC(=O)CC[C@H](NC(=O)N[C@@H](CCC(=O)O)C(=O)O)C(=O)O)C(=O)O)C(=O)O)cc1)C(C)(C)C [SiFA-PSMA ligand 01 k] | ≥98.9 | 61.61 ± 1.33 | −2.99 ± 0.02 | 29.4 ± 0.6 |  |
| CC(C)(C)[Si](F)(c1ccc(C(=O)NC[C@@H](NC(=O)[C@H](N)CNC(=O)CC[C@H](NC(=O)N[C@@H](CCC(=O)O)C(=O)O)C(=O)O)C(=O)N[C@H](CCCCNC(=O)CCC(=O)NCCC[C@@H](NC(=O)CC[C@H](NC(=O)N[C@@H](CCC(=O)O)C(=O)O)C(=O)O)C(=O)O)C(=O)O)cc1)C(C)(C)C [SiFA-PSMA ligand 02 a] | ≥98.9 | 231.60 ± 14.21 | −3.65 ± 0.09 |  | 10.2 ± 1.2 |
| CC(C)(C)[Si](F)(c1ccc(C(=O)NC[C@@H](NC(=O)CCCCCNC(=O)CC[C@H](NC(=O)N[C@@H](CCC(=O)O)C(=O)O)C(=O)O)C(=O)N[C@H](CCCCNC(=O)CCC(=O)NCCC[C@@H](NC(=O)CC[C@H](NC(=O)N[C@@H](CCC(=O)O)C(=O)O)C(=O)O)C(=O)O)C(=O)O)cc1)C(C)(C)C [SiFA-PSMA ligand 02 c] | ≥99.0 | 156.95 ± 13.21 | −3.27 ± 0.02 | 5.9 ± 1 |  |
| CC(C)(C)[Si](F)(c1ccc(C(=O)NC[C@@H](NC(=O)CCCCCNC(=O)CC[C@@H](NC(=O)N[C@H](CCC(=O)O)C(=O)O)C(=O)O)C(=O)N[C@H](CCCCNC(=O)CCC(=O)NCCC[C@@H](NC(=O)CC[C@H](NC(=O)N[C@@H](CCC(=O)O)C(=O)O)C(=O)O)C(=O)O)C(=O)O)cc1)C(C)(C)C [SiFA-PSMA ligand 02 d] | ≥98.9 | 119.56 ± 5.84 | −3.24 ± 0.03 |  | 9.9 ± 0.8 |
| CC(C)(C)[Si](F)(c1ccc(C(=O)NC[C@@H](NC(=O)CNC(=O)CNC(=O)CNC(=O)CC[C@H](NC(=O)N[C@@H](CCC(=O)O)C(=O)O)C(=O)O)C(=O)N[C@H](CCCCNC(=O)CCC(=O)NCCC[C@@H](NC(=O)CC[C@H](NC(=O)N[C@@H](CCC(=O)O)C(=O)O)C(=O)O)C(=O)O)C(=O)O)cc1)C(C)(C)C [SiFA-PSMA ligand 02 e] ({Glu-CO-γGlu}-GGG[dDap](Benzoyl(4-SiFtBu2))[dK]([Suc-X1])-OH) | ≥98.9 | 190.26 ± 16.87 | −3.50 ± 0.04 |  | 9 ± 2.2 |
| CC(C)(C)[Si](F)(c1ccc(C(=O)NC[C@@H](NC(=O)[C@@H](CC(=O)O)NC(=O)[C@@H](CCC(=O)O)NC(=O)[C@H](N)CCC(=O)O)C(=O)N[C@H](CCCCNC(=O)CCC(=O)NCCC[C@@H](NC(=O)CC[C@H](NC(=O)N[C@@H](CCC(=O)O)C(=O)O)C(=O)O)C(=O)O)C(=O)O)cc1)C(C)(C)C [SiFA-PSMA ligand 03 a] (H-[dE][dE][dD][dDap](Benzoyl(4-SiFtBu2))[dK]([Suc-X1])-OH) | 98.8 | 135.74 ± 6.70 | −3.80 ± 0.06 | 9.3 ± 1.7 |  |
| CC(C)(C)[Si](F)(c1ccc(C(=O)NC[C@@H](NC(=O)[C@@H](CCC(=O)O)NC(=O)[C@@H](CCC(=O)O)NC(=O)[C@H](N)CCC(=O)O)C(=O)N[C@H](CCCCNC(=O)CCC(=O)NCCC[C@@H](NC(=O)CC[C@H](NC(=O)N[C@@H](CCC(=O)O)C(=O)O)C(=O)O)C(=O)O)C(=O)O)cc1)C(C)(C)C [SiFA-PSMA ligand 03 b] (H-[dE][dE][dE][dDap](Benzoyl(4-SiFtBu2))[dK]([Suc-X1])-OH) | 98.9 | 135.78 ± 5.50 | −3.85 ± 0.04 | 8.8 ± 1 |  |
| CC(C)(C)[Si](F)(c1ccc(C(=O)NC[C@@H](NC(=O)[C@@H](CCCNC(N)=O)NC(=O)[C@@H](CCC(=O)O)NC(=O)[C@H](N)CCC(=O)O)C(=O)N[C@H](CCCCNC(=O)CCC(=O)NCCC[C@@H](NC(=O)CC[C@H](NC(=O)N[C@@H](CCC(=O)O)C(=O)O)C(=O)O)C(=O)O)C(=O)O)cc1)C(C)(C)C [SiFA-PSMA ligand 03 c] (H-[dE][dE][dCit][dDap](Benzoyl(4-SiFtBu2))[dK]([Suc-X1])-OH) | 98.6 | 87.55 ± 2.28 | −3.31 ± 0.02 | 11.7 ± 1.5 |  |
